Experimental data taken from article PMC12406199, “NanoDSF Screening for Anti-tubulin Agents Uncovers New Structure–Activity Insights” (Journal of Medicinal Chemistry, 2025).
Where a name gives a salt, the structure may show the parent alone.

Assays:
U87MG = experiment: cells; parameters: MTT viability assay on U87MG glioblastoma cells; conditions: Homo sapiens, U-87 MG, 72 h
Experimental: Glioblastoma cell culture routines, viability, and proliferation assays were performed as previously described. U87MG cells were maintained in complete MEM media supplemented with 10% FBS and 2 mM L-glutamine (Invitrogen, Paris, France). For cytotoxicity assays, cells were counted and plated in 96-well flat-bottom plates (50,000 cells/mL, 5000 cells per well). After 24 h, the cells were treated with increasing concentrations of the MTAs (0, 1, 5, 10, and 20–40 μM) in a vehicle solution, containing 0.05% DMSO. All concentrations were done in triplicates. The surviving cells were quantified after 72 h by the tetrazolium bromide MTT-assay, according to the manufacturer’s instructions. After cell lysis, the optical density was measured at 600 nm using a Multiskan MS Thermo plate reader (LabSystems, Waltham, MA, USA).

tubulin = tubulin (Ovis aries, UniProt D0VWY9+D0VWZ0); experiment: nanoDSF screen, shift of polymerization temperature at about […]; format: biochemical
Sequence of tubulin (D0VWY9 entry or part of it): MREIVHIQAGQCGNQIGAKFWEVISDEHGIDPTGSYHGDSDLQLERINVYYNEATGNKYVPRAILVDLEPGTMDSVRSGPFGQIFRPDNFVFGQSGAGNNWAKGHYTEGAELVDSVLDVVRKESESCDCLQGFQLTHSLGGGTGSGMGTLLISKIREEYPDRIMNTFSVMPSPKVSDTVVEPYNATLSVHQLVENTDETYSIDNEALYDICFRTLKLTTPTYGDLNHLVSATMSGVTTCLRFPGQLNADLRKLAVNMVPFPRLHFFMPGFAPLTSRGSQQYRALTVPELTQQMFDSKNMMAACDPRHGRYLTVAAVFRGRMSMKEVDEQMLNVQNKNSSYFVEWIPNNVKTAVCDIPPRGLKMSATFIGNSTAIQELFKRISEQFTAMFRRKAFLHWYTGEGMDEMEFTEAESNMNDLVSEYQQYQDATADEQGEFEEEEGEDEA
Sequence of tubulin (D0VWZ0 entry or part of it): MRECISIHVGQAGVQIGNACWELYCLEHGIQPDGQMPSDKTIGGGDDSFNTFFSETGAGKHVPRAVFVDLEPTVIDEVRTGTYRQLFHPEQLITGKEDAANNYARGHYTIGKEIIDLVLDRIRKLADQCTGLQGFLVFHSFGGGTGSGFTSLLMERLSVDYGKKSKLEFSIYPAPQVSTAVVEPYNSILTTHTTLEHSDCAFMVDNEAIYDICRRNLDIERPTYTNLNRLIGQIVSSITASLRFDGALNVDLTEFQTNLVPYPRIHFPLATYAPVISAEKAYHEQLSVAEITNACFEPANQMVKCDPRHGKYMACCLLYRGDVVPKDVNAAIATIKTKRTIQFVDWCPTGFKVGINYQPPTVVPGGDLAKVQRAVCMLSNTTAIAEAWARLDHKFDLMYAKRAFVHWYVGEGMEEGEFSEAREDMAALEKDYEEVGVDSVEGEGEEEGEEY

SMILES: O[C@@H](c1cc(C(F)(F)F)nc2c(C(F)(F)F)cccc12)[C@H]1CCCCN1 (racemic) [MFQ, Mefloquine]
- IC50 (U87MG): 11.6 ± 1.2 µM

SMILES: CCCSc1ccc2nc(NC(=O)OC)[nH]c2c1 [ABZ, Albendazole]
- IC50 (U87MG): 0.3 µM
- ΔTm at 50 µM (tubulin): 6.4 °C

SMILES: C[C@@H](O[C@H]1OCCN(Cc2n[nH]c(=O)[nH]2)[C@H]1c1ccc(F)cc1)c1cc(C(F)(F)F)cc(C(F)(F)F)c1 [APT, Aprepitant]
- IC50 (U87MG): 41.8 ± 31.8 µM

SMILES: C[C@H]1[C@H](OC(=O)CCC(=O)O)O[C@@H]2O[C@@]3(C)CC[C@H]4[C@H](C)CC[C@@H]1[C@@]24OO3 [ASN, Artesunate]
- IC50 (U87MG): 24 ± 4.1 µM

SMILES: CCc1oc2ccccc2c1C(=O)c1ccc(O)cc1 [BZ, Benzarone]
- IC50 (U87MG): 7.4 ± 0.7 µM

SMILES: CCc1oc2ccccc2c1C(=O)c1cc(Br)c(O)c(Br)c1 [BZB, Benzbromarone]
- IC50 (U87MG): 62.1 ± 2.8 µM

SMILES: Nc1cc(C(Cl)=C(Cl)Cl)c(S(N)(=O)=O)cc1S(N)(=O)=O [CLS, Clorsulon]
- IC50 (U87MG): 66.8 ± 13.3 µM

SMILES: CN(C)CC/C=C1/c2ccccc2Sc2ccc(Cl)cc21 [CPX, Chlorprothixene]
- IC50 (U87MG): 27.6 ± 2.2 µM

SMILES: CN(C)CCCN1c2ccccc2Sc2ccc(Cl)cc21 [CPZ, Chlorpromazine]
- IC50 (U87MG): 4.5 ± 0.5 µM

SMILES: Oc1ccc(Cl)cc1Cc1cc(Cl)ccc1O [DCP, Dichlorophen]
- IC50 (U87MG): 7.7 ± 1.2 µM

SMILES: N#CC(c1ccc(Cl)cc1)c1c(Cl)cc(-n2ncc(=O)[nH]c2=O)cc1Cl (stereo not drawn) [DCZ, Diclazuril]
- IC50 (U87MG): 48.9 ± 6 µM

SMILES: C/C=C(/C(=C/C)c1ccc(O)cc1)c1ccc(O)cc1 [DE, Dienestrol]
- IC50 (U87MG): 23.6 ± 1 µM

SMILES: CCN(CC)C(=S)SSC(=S)N(CC)CC [DFM, Disulfiram]
- IC50 (U87MG): 12 ± 1.6 µM

SMILES: O=c1c2ccccc2[se]n1-c1ccccc1 [EBS, Ebselen]
- IC50 (U87MG): 50.9 ± 32.7 µM

SMILES: C[C@]12CC[C@@H]3c4ccc(O)cc4CC[C@H]3[C@@H]1CC[C@@H]2O [ED, 17β-estradiol]
- IC50 (U87MG): 30.7 ± 1.9 µM

SMILES: C#C[C@]1(O)CC[C@H]2[C@@H]3CCc4cc(O)ccc4[C@H]3CC[C@@]21C [EES, Ethinylestradiol]
- IC50 (U87MG): 15.7 ± 0.8 µM

SMILES: O=C1Nc2ccc(Cl)cc2[C@@](C#CC2CC2)(C(F)(F)F)O1 [EFV, Efavirenz]
- IC50 (U87MG): 26.7 ± 2.6 µM

SMILES: COC(=O)Nc1nc2ccc(Sc3ccccc3)cc2[nH]1 [FBZ, Fenbendazole]
- IC50 (U87MG): 0.2 µM

SMILES: CCOC(=O)C1=C(C)NC(C)=C(C(=O)OC)C1c1cccc(Cl)c1Cl (stereo not drawn) [FDP, Felodipine]
- IC50 (U87MG): 13.7 ± 4 µM

SMILES: COC(=O)Nc1nc2cc(C(=O)c3ccc(F)cc3)ccc2[nH]1 [FLU, Flubendazol]
- IC50 (U87MG): 0.6 µM

SMILES: OCCN1CCN(CC/C=C2/c3ccccc3Sc3ccc(C(F)(F)F)cc32)CC1 [FPX, Flupentixol]
- IC50 (U87MG): 9.8 ± 1.8 µM

SMILES: COC1=CC(=O)C[C@@H](C)[C@]12Oc1c(Cl)c(OC)cc(OC)c1C2=O [GSF, Griseofulvin]
- IC50 (U87MG): 24.4 ± 3.7 µM

SMILES: Oc1c(Cl)cc(Cl)c(Cl)c1Cc1c(O)c(Cl)cc(Cl)c1Cl [HCP, Hexachlorophene]
- IC50 (U87MG): 5.1 ± 0.7 µM

SMILES: CC[C@H](c1ccc(O)cc1)[C@@H](CC)c1ccc(O)cc1 [Hexestrol]
- IC50 (U87MG): 20.2 ± 0.5 µM

SMILES: Clc1ccc(C(Cn2ccnc2)OCc2c(Cl)cccc2Cl)c(Cl)c1 (stereo not drawn) [ICZ, Isoconazole]
- IC50 (U87MG): 33.1 ± 1.8 µM

SMILES: C[C@]12C=CC(=O)C=C1CC[C@@H]1[C@@H]2CC[C@@]2(C)[C@H]1CC[C@]2(C)O [MAS, Methandrostenolone]
- IC50 (U87MG): 58.7 ± 5.1 µM

SMILES: CN(C)c1ccc2nc3ccc(=[N+](C)C)cc-3sc2c1 [MB, Methylene Blue]
- IC50 (U87MG): 64.2 ± 9.9 µM

SMILES: Clc1ccc(C(c2ccccc2Cl)C(Cl)Cl)cc1 (stereo not drawn) [MTT, Mitotane]
- IC50 (U87MG): 23.7 ± 2.7 µM

SMILES: COC(=O)Nc1nc2ccc(C(=O)c3cccs3)cc2[nH]1 [NCZ, Nocodazole]
- IC50 (U87MG): < 0.1 µM
- ΔTm at 50 µM (tubulin): 6 °C

SMILES: N=C(N)Nc1ccc(C(=O)Oc2ccc3cc(C(=N)N)ccc3c2)cc1 [NFM, Nafamostat]
- IC50 (U87MG): 45.2 ± 6.1 µM

SMILES: COC(=O)C1=C(C)NC(C)=C(C(=O)OCC(C)C)C1c1ccccc1[N+](=O)[O-] (stereo not drawn) [NSD, Nisoldipine]
- IC50 (U87MG): 25.3 ± 1.6 µM

SMILES: CCOC(=O)C1=C(C)NC(C)=C(C(=O)OC)C1c1cccc([N+](=O)[O-])c1 (stereo not drawn) [NTD, Nitrendipine]
- IC50 (U87MG): 36.8 ± 3.3 µM

SMILES: CNCCC=C1c2ccccc2CCc2ccccc21 [NTP, Nortriptyline]
- IC50 (U87MG): 20.5 ± 1.5 µM

SMILES: CCCOc1ccc2[nH]c(NC(=O)OC)nc2c1 [OBZ, Oxibendazol]
- IC50 (U87MG): 1.8 ± 0.3 µM

SMILES: COC(=O)Nc1nc2cc([S+]([O-])c3ccccc3)ccc2[nH]1 (stereo not drawn) [OFZ, Oxfendazole]
- IC50 (U87MG): 17 ± 1 µM

SMILES: COc1ccc(C(=O)c2ccccc2)c(O)c1 [OXY, Oxybenzone]
- IC50 (U87MG): 14.4 ± 7 µM

SMILES: CC(C)c1cccc(C(C)C)c1O [PPF, Propofol]
- IC50 (U87MG): 26.6 ± 2.5 µM

SMILES: OCCN1CCN(CCCN2c3ccccc3Sc3ccc(Cl)cc32)CC1 [PPZ, Perphenazine]
- IC50 (U87MG): 9.8 ± 0.4 µM

SMILES: CNCCCC1c2ccccc2C=Cc2ccccc21 [PTP, Protriptyline hydrochloride]
- IC50 (U87MG): 17.7 ± 1.5 µM

SMILES: c1ccc2c(c1)Nc1ccccc1S2 [PTZ, Phenothiazine]
- IC50 (U87MG): 60.2 ± 9.2 µM

SMILES: O=C1NCCN1CCN1CCC(c2cn(-c3ccc(F)cc3)c3ccc(Cl)cc23)CC1 [STD, Sertindole]
- IC50 (U87MG): 6.7 ± 0.2 µM

SMILES: Clc1ccc(C(Cn2ccnc2)OCc2csc3c(Cl)cccc23)c(Cl)c1 (stereo not drawn) [STZ, Sertaconazole nitrate]
- IC50 (U87MG): 10.7 ± 1.3 µM

SMILES: Cc1cc2nc3ccc(N(C)C)cc3[s+]c2cc1N [TBO, Tolonium (Toluidine Blue O)]
- IC50 (U87MG): 6.3 ± 0.3 µM

SMILES: Oc1cc(Cl)ccc1Oc1ccc(Cl)cc1Cl [TCL, Triclosan]
- IC50 (U87MG): 11.6 ± 0.5 µM

SMILES: CSc1nc2cc(Cl)c(Oc3cccc(Cl)c3Cl)cc2[nH]1 [TCZ, Triclabendazole]
- IC50 (U87MG): 15.1 ± 0.9 µM

SMILES: CCSc1ccc2c(c1)N(CCCN1CCN(C)CC1)c1ccccc1S2 [TEP, Thiethylperazine]
- IC50 (U87MG): 8.4 ± 0.2 µM

SMILES: CN1CCN(CCCN2c3ccccc3Sc3ccc(C(F)(F)F)cc32)CC1 [TFP, Trifluoperazine]
- IC50 (U87MG): 17.3 ± 3.2 µM

SMILES: CN(C)CCCN1c2ccccc2Sc2ccc(C(F)(F)F)cc21 [TFZ, Triflupromazine]
- IC50 (U87MG): 6.5 ± 0.6 µM

SMILES: Cc1c(C)c2c(c(C)c1O)CCC(C)(COc1ccc(CC3SC(=O)NC3=O)cc1)O2 (stereo not drawn) [TGZ, Troglitazone]
- IC50 (U87MG): 39.5 ± 1 µM

SMILES: CN(C)CCOc1ccc(/C(=C(/CCCl)c2ccccc2)c2ccccc2)cc1 [TMF, Toremifene]
- IC50 (U87MG): 13.3 ± 1.9 µM

SMILES: Clc1ccc(C(Cn2ccnc2)OCc2ccsc2Cl)c(Cl)c1 (stereo not drawn) [TOZ, Tioconazole]
- IC50 (U87MG): 18.3 ± 1.4 µM

SMILES: CNCCC=C1c2ccccc2C=Cc2ccccc21 [nCBP, Norcyclobenzaprine]
- IC50 (U87MG): 15.2 ± 0.8 µM
